Results from patent US12653800B2, “Small molecule inhibitors of TLR2 signaling” (University of Maryland, Baltimore, priority 2015, dated 2026).

Tests used:
[1] = in vivo; stated for o-vanillin, reported previously for its isomer vanillin (Beaudry 2010); cited from earlier work
mTLR2/6 = target: T1, mTLR2/6 (Mus musculus, UniProt Q9QUN7); assay: NF-κβ (ELAM)-luciferase reporter assay in HEK293T cells transfected with murine TLR2 and TLR6, P2C; assay type: cell-based; conditions: HEK293T transfected with murine TLR2 and TLR6, C29 50 μM, P2C 50 ng/mL 5 hrs
T1 construct: expressed in transfected cells; host or cells: HEK293T, transient transfection; plasmids from Dr. Vladimir Toshchakov
Protocol: FIG. 9. C29 is species-specific and blocks human TLR2/6 signaling, but not murine TLR2/6 signaling. (A-D) HEK293T cells were transiently transfected with reporter constructs for ELAM-luciferase, Renilla-luciferase, and pcDNA3.1 in combination with/without pcDNA3-YFP-hTLR2, pFLAG-CMV1-hTLR1, pcDNA3-CFP-hTLR6, pcDNA3.1-mTLR2-CFP, pcDNA3.1-mTLR1-YFP, or pcDNA3.1-mTLR6-CFP. Cells were pretreated for 1 hr with media, vehicle (65 μM NaOH), or C29 (50 μM) and then treated with P3C or P2C (50 ng/mL) for 5 hrs in the presence of media, vehicle, or C29. Lysates were prepared and the dual-luciferase assay performed. Panels A and B represent the mean±SEM from 3 independent experiments and panels C and D represent the mean±SEM from 2 independent experiments each carried out in duplicate (*, p≤0.05; **, p≤0.01).
HEK293T cells were cultured and plated overnight in 12-well tissue culture plates (2×10^5 cells/well). Transfection mixtures consisted of pcDNA3-YFP-hTLR2 or pcDNA3.1 control vector (1 μg/well each), pELAM (NF-κB)-luciferase (0.2 μg/well), and pRL-TK-Renilla luciferase (0.05 μg/well). […] Cells were lysed in a passive lysis buffer (Promega, Madison, WI) and firefly luciferase and Renilla luciferase activities were measured using the dual luciferase reporter assay system (Promega, Madison, WI). […]

TLR2/6 = TLR2/6 (Homo sapiens, UniProt O60603); assay: P2C-induced IL-8 mRNA (qRT-PCR) in HEK-TLR2 stable transfectants; assay type: cell-based; parameters: expressed in transfected cells
[2] = test system: MyD88-independent pathway; assay: IFN-β mRNA in murine macrophages stimulated with agonists that induce IFN-β; assay type: cell-based; conditions: C29 50 μM, 3 hrs
Protocol: FIG. 10. Examining the broader specificity of C29 for TLR2 signaling. (A, B) Total RNA was extracted from murine macrophages that had been pretreated for 1 hr with vehicle (65 μM NaOH) or C29 (50 μM) and then stimulated with P3C (50 ng/mL), P2C (100 ng/mL), zymosan (10 μg/mL), S. aureus LTA (1 μg/mL), poly(I:C) (10 μg/mL), LPS (100 ng/mL), R848 (10 μg/mL), or CpG ODN 1668 (5 μM) for 3 hrs in the presence of vehicle or C29. IL-1β and IFN-β mRNA were measured as described in FIG. 1, panel D. (C) THP-1 cells were plated in the presence of PMA (20 ng/mL) for 24 hrs and washed twice in media. Total RNA was extracted from cell cultures pretreated for 1 hr with vehicle (260 μM NaOH) or C29 (50 μM, 100 μM, or 200 μM) and then stimulated with zymosan (10 μg/mL) or S. aureus LTA (1 μg/mL) for 4 hrs in the presence of vehicle or C29. IL-1β mRNA was measured as described in FIG. 1, panel B. Quantitative real-time results represent the mean±SEM from 2 independent experiments each carried out in duplicate (*, p≤0.05; **, p≤0.01; ***, p≤0.001).
Cytokine gene expression was measured by qRT-PCR with transcript-specific primers using SYBR Green in the ABI Prism 7900 Fast Real Time PCR system (Applied Biosystems, Foster City, CA) as described (Cole L E, et al. (2006) Journal of immunology 176(11):6888-6899). […]

TLR2 = TLR2 (Homo sapiens, UniProt O60603); assay type: cell-based; conditions: HEK-TLR2 cells, C29 50 μM
Sequence of TLR2 (O60603 21-784 limits assumed): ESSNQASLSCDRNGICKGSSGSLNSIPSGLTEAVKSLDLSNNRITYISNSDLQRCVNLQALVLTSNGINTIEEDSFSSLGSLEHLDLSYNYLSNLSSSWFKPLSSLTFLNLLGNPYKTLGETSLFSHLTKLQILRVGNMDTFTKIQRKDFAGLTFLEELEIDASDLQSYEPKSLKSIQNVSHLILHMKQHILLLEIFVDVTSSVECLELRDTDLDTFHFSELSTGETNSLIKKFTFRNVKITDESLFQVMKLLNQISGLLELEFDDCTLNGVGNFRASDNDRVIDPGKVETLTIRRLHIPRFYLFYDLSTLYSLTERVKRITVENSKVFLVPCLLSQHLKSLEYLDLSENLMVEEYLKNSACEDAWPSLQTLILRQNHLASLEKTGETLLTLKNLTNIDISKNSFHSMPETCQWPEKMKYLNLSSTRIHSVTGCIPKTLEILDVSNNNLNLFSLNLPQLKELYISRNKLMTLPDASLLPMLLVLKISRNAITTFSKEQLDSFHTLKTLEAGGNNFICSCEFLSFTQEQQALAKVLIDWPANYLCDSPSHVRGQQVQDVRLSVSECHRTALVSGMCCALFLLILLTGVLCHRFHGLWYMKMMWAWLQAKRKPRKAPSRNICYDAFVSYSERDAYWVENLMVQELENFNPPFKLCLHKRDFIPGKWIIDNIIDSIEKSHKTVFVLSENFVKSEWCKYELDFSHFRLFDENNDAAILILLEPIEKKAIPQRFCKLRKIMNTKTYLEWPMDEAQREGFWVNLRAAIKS

Sequence of TLR2/6 (O60603 21-784): as the sequence (O60603 21-784 limits assumed) above
T1 sequence (Q9QUN7 25-784): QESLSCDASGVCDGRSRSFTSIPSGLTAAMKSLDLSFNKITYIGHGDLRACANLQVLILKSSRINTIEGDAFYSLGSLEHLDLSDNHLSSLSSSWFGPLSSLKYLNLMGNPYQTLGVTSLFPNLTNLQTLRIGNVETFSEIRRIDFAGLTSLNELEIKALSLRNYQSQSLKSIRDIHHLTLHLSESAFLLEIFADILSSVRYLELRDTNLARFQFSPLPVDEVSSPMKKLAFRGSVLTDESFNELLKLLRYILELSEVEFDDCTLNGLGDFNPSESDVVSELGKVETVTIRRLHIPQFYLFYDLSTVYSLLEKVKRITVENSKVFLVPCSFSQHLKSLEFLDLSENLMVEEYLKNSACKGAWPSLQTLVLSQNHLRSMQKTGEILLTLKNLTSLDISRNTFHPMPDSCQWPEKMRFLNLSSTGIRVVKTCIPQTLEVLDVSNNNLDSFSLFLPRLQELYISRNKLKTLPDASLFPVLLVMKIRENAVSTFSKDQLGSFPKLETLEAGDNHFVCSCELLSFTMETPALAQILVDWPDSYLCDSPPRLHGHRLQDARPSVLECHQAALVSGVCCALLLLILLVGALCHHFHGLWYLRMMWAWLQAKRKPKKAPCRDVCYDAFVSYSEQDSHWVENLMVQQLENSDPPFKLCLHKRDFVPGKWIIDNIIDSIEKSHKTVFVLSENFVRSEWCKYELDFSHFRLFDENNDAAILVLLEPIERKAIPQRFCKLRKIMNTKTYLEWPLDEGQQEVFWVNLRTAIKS

Structure (SMILES)	bioavailability [1]	mTLR2/6-induced NF-κβ-luciferase activity (mTLR2/6)	inhibition at 100 µM (TLR2/6; 100 μM compound, 1 hr pretreatment, P2C 5 ng/mL 1 hr, HEK-TLR2 cells, read-out: decrease of P2C-induced IL-8 mRNA)	P2C-induced IL-8 mRNA (TLR2/6; C29 10 μM or 50 μM, P2C 200 ng/mL 1 hr, HEK-TLR2 stable transfectants)	IFN-β mRNA (MyD88-independent pathway) [2]	live F. tularensis-induced IL-8 mRNA (TLR2; LVS MOI=10, 4 hrs, TLR2/6 agonist)	heat-killed Ps. aeruginosa (HKPA)-induced IL-8 mRNA (TLR2; MOI=50, 4 hrs)	heat-killed S. aureus (HKSA)-induced IL-8 mRNA (TLR2; MOI=50, 4 hrs)
COc1cccc(C=O)c1O [Compound C29L, ortho-vanillin]	poor bioavailability							
COc1cccc(/C=N/c2cccc(C(=O)O)c2C)c1O [Compound C29]		but not mTLR2/6-induced	≥ 50%	blocked P3C- and P2C-induced IL-8 mRNA dose-dependently	no significant inhibitory effect	significantly inhibited	significantly inhibited	significantly inhibited
